# Test results: patent US12419961B2 (CNPharm Co., Ltd., priority 2021, dated 2025)
# Legend:
# pancreatic cancer = pancreatic cancer patients, cited from earlier work
# L929 = experiment: cell viability assay on L929 normal cell line; format: cell-based; settings: FIG. 5B; normal mouse fibroblast cell line
# [1] = system: PANC-1 pancreatic carcinoma tumors; experiment: anticancer efficacy in mouse xenograft model (tumor growth); format: in vivo, BALB/c mice
# Protocol: (§1) Normally, non-treated group is injected with saline (NaCl solution) in anti-cancer efficacy study.
# [2] = weight monitoring in mouse xenograft model; format: in vivo, BALB/c mice; settings: FIG. 6B; PANC-1 model; dose: docetaxel standard, 20 mg/kg
# Protocol: as §1
molecule,measurement,setting,value
"O=c1[nH]cc(F)c(=O)[nH]1 [5-FU, 5-fluorouracil]","survival rate, gemcitabine compared to 5-FU",pancreatic cancer,4.41 months
same,median overall survival rate compared to supportive care,pancreatic cancer; supportive care 2.5 months,6 moths
"CC(=O)O[C@@]12CO[C@@H]1C[C@H](O)[C@@]1(C)C(=O)[C@H](O)C3=C(C)[C@@H](OC(=O)[C@H](O)[C@@H](NC(=O)OC(C)(C)C)c4ccccc4)C[C@@](O)([C@@H](OC(=O)c4ccccc4)[C@H]21)C3(C)C [DTX, docetaxel]",cytotoxicity toward normal cell line L929,L929,low cytotoxicity
same,tumor growth (mean tumor volume),"[1]; FIG. 6A; PANC-1 model; dose: docetaxel standard, 20 mg/kg; P<0.01 vs negative control",significant inhibition in tumor growth
same,body weight loss,[2],significant body weight loss was observed
Nc1ccn([C@@H]2O[C@H](CO)[C@@H](O)C2(F)F)c(=O)n1 [gemcitabine],"survival rate, gemcitabine compared to 5-FU",pancreatic cancer,5.65 months
docetaxel-aconitic anhydride conjugate [A3Tx],tumor growth (mean tumor volume),"[1]; FIG. 6A, PANC-1 model, dose: docetaxel standard, 20 mg/kg, P<0.01 vs negative control",significant inhibition in tumor growth
same,tumor growth (mean tumor volume),"[1]; FIG. 6A, PANC-1 model, dose: docetaxel standard, 20 mg/kg, P<0.01 vs negative control, listed as A3TX",significantly delays tumor growth
